Test results from US20170368082A1, “FORMULATIONS OF BRINCIDOFOVIR” (priority 2016, published 2017).
Where two headings read alike, the source gives them in different places.

What was measured:
[1] = Mass balance (excretion of total radioactivity) after 2-h IV infusion of [^14C]brincidofovir; type: in vivo, male Sprague Dawley rats
Protocol: All animals were obtained from Hilltop Lab Animals, Inc. (Scottdale, Pa.). Rats weighed between 214 and 265 g at dosing. […] Three dosing formulations (one for high dose IV, one for low dose IV, and one for PO dose) were prepared at QPS on the day of dosing. […] The IV dose formulation for Group 5 and the PO dose formulation for Groups 6 and 7 contained higher concentration of buffer so that the final buffer concentration was approximately 10 mM in all dose formulations. […] Urine samples were collected from each animal into pre-labeled urine collection tubes at pre-dose (overnight) and at intervals of 0-8 h, 8-24 h, and at every subsequent 24 h interval until 168 h post-dose. All urine specimens were collected over dry ice. The total weight of each urine collection was documented, and the samples were stored frozen at approximately −70° C. until LSC analysis. Samples were maintained at approximately −70° C. following analysis, and were saved for further analysis, to be conducted under a separate protocol. Feces samples were collected from each animal into a pre-labeled feces collection tube at pre-dose (overnight) and at 24 h intervals post-dose until 168 h post-dose. Feces specimens were collected over dry ice and the total weight of each feces sample was documented. Feces samples were stored at approximately −70° C. until homogenization and LSC analysis, were maintained at approximately −70° C. following analysis, and were saved for further analysis, to be conducted under a separate protocol. Feces were homogenized and analyzed for total radioactivity content. […] The actual weights of the individual aliquots and the amount of solvent used in homogenization were recorded. Pre-weighed portions of each feces homogenate were placed into a CombustoCone® that contained a CombustoPad®, allowed to dry over-night in a fume hood, and were burned completely in the sample oxidizer. […] Volumes or weights of sample aliquots were documented in the study records.

[2] = Comparison of toxicity of orally and intravenously administered brincidofovir (rat intestine); type: in vivo; conditions: for AUC / Cmax: rat, in vivo; for AUC: read-out: Exposure AUC; for Cmax: read-out: Exposure Cmax
Text: As shown in the figures, IV administration of brincidofovir is more well-tolerated in the intestine.

[3] = Sprague-Dawley CD, IV, repeat dose 1 mg/kg
[4] = Sprague-Dawley CD, IV, repeat dose 4 mg/kg
[5] = Sprague-Dawley CD, IV, repeat dose 15 mg/kg

## CCCCCCCCCCCCCCCCOCCCOP(=O)(O)CO[C@H](CO)Cn1ccc(N)nc1=O [[^14C]brincidofovir]
[1]; 15 mg/kg 2-h IV, 168 h
  Radioactivity recovered in feces: 42.2 % of administered dose
  Radioactivity recovered in urine: 51.2 % of administered dose
[1]; 168 h
  Total recovery in urine and feces combined: 93.5 % of the dose
[1]; Feces 0-24 h, Mean, 15 mg/kg IV
  Percent Recovery of total radioactivity: 36.7 % Dose
[1]; Feces 0-24 h, Rat 01, 15 mg/kg IV
  Percent Recovery of total radioactivity: 37.3 % Dose
[1]; Feces 0-24 h, Rat 02, 15 mg/kg IV
  Percent Recovery of total radioactivity: 37.6 % Dose
[1]; Feces 0-24 h, Rat 03, 15 mg/kg IV
  Percent Recovery of total radioactivity: 35.1 % Dose
[1]; Feces 24-48 h, Mean, 15 mg/kg IV
  Percent Recovery of total radioactivity: 3.8 % Dose
[1]; Feces 24-48 h, Rat 01, 15 mg/kg IV
  Percent Recovery of total radioactivity: 3.4 % Dose
[1]; Feces 24-48 h, Rat 02, 15 mg/kg IV
  Percent Recovery of total radioactivity: 4.6 % Dose
[1]; Feces 24-48 h, Rat 03, 15 mg/kg IV
  Percent Recovery of total radioactivity: 3.5 % Dose
[1]; Feces 48-72 h, Mean, 15 mg/kg IV
  Percent Recovery of total radioactivity: 0.9 % Dose
[1]; Feces 48-72 h, Rat 01, 15 mg/kg IV
  Percent Recovery of total radioactivity: 0.9 % Dose
[1]; Feces 48-72 h, Rat 02, 15 mg/kg IV
  Percent Recovery of total radioactivity: 1.0 % Dose
[1]; Feces 48-72 h, Rat 03, 15 mg/kg IV
  Percent Recovery of total radioactivity: 0.8 % Dose
[1]; Feces 72-96 h, Mean, 15 mg/kg IV
  Percent Recovery of total radioactivity: 0.4 % Dose
[1]; Feces 72-96 h, Rat 01, 15 mg/kg IV
  Percent Recovery of total radioactivity: 0.4 % Dose
[1]; Feces 72-96 h, Rat 02, 15 mg/kg IV
  Percent Recovery of total radioactivity: 0.4 % Dose
[1]; Feces 72-96 h, Rat 03, 15 mg/kg IV
  Percent Recovery of total radioactivity: 0.4 % Dose
[1]; Feces 96-120 h, Mean, 15 mg/kg IV
  Percent Recovery of total radioactivity: 0.2 % Dose
[1]; Feces 96-120 h, Rat 01, 15 mg/kg IV
  Percent Recovery of total radioactivity: 0.2 % Dose
[1]; Feces 96-120 h, Rat 02, 15 mg/kg IV
  Percent Recovery of total radioactivity: 0.2 % Dose
[1]; Feces 96-120 h, Rat 03, 15 mg/kg IV
  Percent Recovery of total radioactivity: 0.2 % Dose
[1]; Feces 120-144 h, Mean, 15 mg/kg IV
  Percent Recovery of total radioactivity: 0.1 % Dose
[1]; Feces 120-144 h, Rat 01, 15 mg/kg IV
  Percent Recovery of total radioactivity: 0.1 % Dose
[1]; Feces 120-144 h, Rat 02, 15 mg/kg IV
  Percent Recovery of total radioactivity: 0.1 % Dose
[1]; Feces 120-144 h, Rat 03, 15 mg/kg IV
  Percent Recovery of total radioactivity: 0.1 % Dose
[1]; Feces 144-168 h, Mean, 15 mg/kg IV
  Percent Recovery of total radioactivity: 0.1 % Dose
[1]; Feces 144-168 h, Rat 01, 15 mg/kg IV
  Percent Recovery of total radioactivity: 0.1 % Dose
[1]; Feces 144-168 h, Rat 02, 15 mg/kg IV
  Percent Recovery of total radioactivity: 0.1 % Dose
[1]; Feces 144-168 h, Rat 03, 15 mg/kg IV
  Percent Recovery of total radioactivity: 0.1 % Dose
[1]; Feces Subtotal (0-168 h), Mean, 15 mg/kg IV
  Percent Recovery of total radioactivity: 42.2 % Dose
[1]; Feces Subtotal (0-168 h), Rat 01, 15 mg/kg IV
  Percent Recovery of total radioactivity: 42.4 % Dose
[1]; Feces Subtotal (0-168 h), Rat 02, 15 mg/kg IV
  Percent Recovery of total radioactivity: 44.2 % Dose
[1]; Feces Subtotal (0-168 h), Rat 03, 15 mg/kg IV
  Percent Recovery of total radioactivity: 40.2 % Dose
[1]; Total urine + feces (0-168 h), Mean, 15 mg/kg IV
  Percent Recovery of total radioactivity: 93.5 % Dose
[1]; Total urine + feces (0-168 h), Rat 01, 15 mg/kg IV
  Percent Recovery of total radioactivity: 93.6 % Dose
[1]; Total urine + feces (0-168 h), Rat 02, 15 mg/kg IV
  Percent Recovery of total radioactivity: 91.6 % Dose
[1]; Total urine + feces (0-168 h), Rat 03, 15 mg/kg IV
  Percent Recovery of total radioactivity: 95.2 % Dose
[1]; Urine 0-8 h, Mean, 15 mg/kg IV
  Percent Recovery of total radioactivity: 31.0 % Dose
[1]; Urine 0-8 h, Rat 01, 15 mg/kg IV
  Percent Recovery of total radioactivity: 33.0 % Dose
[1]; Urine 0-8 h, Rat 02, 15 mg/kg IV
  Percent Recovery of total radioactivity: 29.3 % Dose
[1]; Urine 0-8 h, Rat 03, 15 mg/kg IV
  Percent Recovery of total radioactivity: 30.7 % Dose
[1]; Urine 8-24 h, Mean, 15 mg/kg IV
  Percent Recovery of total radioactivity: 12.8 % Dose
[1]; Urine 8-24 h, Rat 01, 15 mg/kg IV
  Percent Recovery of total radioactivity: 10.7 % Dose
[1]; Urine 8-24 h, Rat 02, 15 mg/kg IV
  Percent Recovery of total radioactivity: 11.5 % Dose
[1]; Urine 8-24 h, Rat 03, 15 mg/kg IV
  Percent Recovery of total radioactivity: 16.2 % Dose
[1]; Urine 24-48 h, Mean, 15 mg/kg IV
  Percent Recovery of total radioactivity: 4.1 % Dose
[1]; Urine 24-48 h, Rat 01, 15 mg/kg IV
  Percent Recovery of total radioactivity: 4.3 % Dose
[1]; Urine 24-48 h, Rat 02, 15 mg/kg IV
  Percent Recovery of total radioactivity: 3.6 % Dose
[1]; Urine 24-48 h, Rat 03, 15 mg/kg IV
  Percent Recovery of total radioactivity: 4.5 % Dose
[1]; Urine 48-72 h, Mean, 15 mg/kg IV
  Percent Recovery of total radioactivity: 1.7 % Dose
[1]; Urine 48-72 h, Rat 01, 15 mg/kg IV
  Percent Recovery of total radioactivity: 1.6 % Dose
[1]; Urine 48-72 h, Rat 02, 15 mg/kg IV
  Percent Recovery of total radioactivity: 1.6 % Dose
[1]; Urine 48-72 h, Rat 03, 15 mg/kg IV
  Percent Recovery of total radioactivity: 1.9 % Dose
[1]; Urine 72-96 h, Mean, 15 mg/kg IV
  Percent Recovery of total radioactivity: 0.8 % Dose
[1]; Urine 72-96 h, Rat 01, 15 mg/kg IV
  Percent Recovery of total radioactivity: 0.8 % Dose
[1]; Urine 72-96 h, Rat 02, 15 mg/kg IV
  Percent Recovery of total radioactivity: 0.8 % Dose
[1]; Urine 72-96 h, Rat 03, 15 mg/kg IV
  Percent Recovery of total radioactivity: 0.8 % Dose
[1]; Urine 96-120 h, Mean, 15 mg/kg IV
  Percent Recovery of total radioactivity: 0.4 % Dose
[1]; Urine 96-120 h, Rat 01, 15 mg/kg IV
  Percent Recovery of total radioactivity: 0.4 % Dose
[1]; Urine 96-120 h, Rat 02, 15 mg/kg IV
  Percent Recovery of total radioactivity: 0.3 % Dose
[1]; Urine 96-120 h, Rat 03, 15 mg/kg IV
  Percent Recovery of total radioactivity: 0.5 % Dose
[1]; Urine 120-144 h, Mean, 15 mg/kg IV
  Percent Recovery of total radioactivity: 0.2 % Dose
[1]; Urine 120-144 h, Rat 01, 15 mg/kg IV
  Percent Recovery of total radioactivity: 0.2 % Dose
[1]; Urine 120-144 h, Rat 02, 15 mg/kg IV
  Percent Recovery of total radioactivity: 0.2 % Dose
[1]; Urine 120-144 h, Rat 03, 15 mg/kg IV
  Percent Recovery of total radioactivity: 0.3 % Dose
[1]; Urine 144-168 h, Mean, 15 mg/kg IV
  Percent Recovery of total radioactivity: 0.2 % Dose
[1]; Urine 144-168 h, Rat 01, 15 mg/kg IV
  Percent Recovery of total radioactivity: 0.2 % Dose
[1]; Urine 144-168 h, Rat 02, 15 mg/kg IV
  Percent Recovery of total radioactivity: 0.1 % Dose
[1]; Urine 144-168 h, Rat 03, 15 mg/kg IV
  Percent Recovery of total radioactivity: 0.2 % Dose
[1]; Urine Subtotal (0-168 h), Mean, 15 mg/kg IV
  Percent Recovery of total radioactivity: 51.2 % Dose
[1]; Urine Subtotal (0-168 h), Rat 01, 15 mg/kg IV
  Percent Recovery of total radioactivity: 51.2 % Dose
[1]; Urine Subtotal (0-168 h), Rat 02, 15 mg/kg IV
  Percent Recovery of total radioactivity: 47.5 % Dose
[1]; Urine Subtotal (0-168 h), Rat 03, 15 mg/kg IV
  Percent Recovery of total radioactivity: 55.1 % Dose
[1]; rat, in vivo
  Fecal excretion in first 24 h: 36.7 % of the dose
  Fecal excretion in first 24 h, share of radioactivity excreted in feces: 87%
  Share of urinary and fecal excretion in first 24 h: ~86%
  Urinary excretion in first 24 h: 43.8 % of the dose
  Urinary excretion in first 24 h, share of radioactivity excreted in urine: 86%

## CCCCCCCCCCCCCCCCOCCCOP(=O)(O)CO[C@H](CO)Cn1ccc(N)nc1=O [Brincidofovir]
[2]; IV administration
  Intestinal finding: minimal single-cell effects
[2]; IV, repeat dose 1 mg/kg
  Preliminary Findings: No GI findings
[2]; [3]
  AUC: 410 ng·h/mL
  Cmax: 298 ng/mL
[2]; [4]
  AUC: 2760 ng·h/mL
  Cmax: 1200 ng/mL
[2]; [5]
  AUC: 9890 ng·h/mL
  Cmax: 4500 ng/mL
[2]; oral administration
  Intestinal finding: significant loss of epithelium in intestinal villi
[2]; oral, single dose 100 mg/kg
  mortality: 38% mortality
  AUC: 13600 ng·h/mL
  Cmax: 1090 ng/mL
[2]; oral, single dose 300 mg/kg
  mortality: 100% mortality
  AUC: 20500 ng·h/mL
  Cmax: 1190 ng/mL
[2]; oral, single dose 30 mg/kg
  AUC: 5560 ng·h/mL
  Cmax: 426 ng/mL
[2]; oral, single dose 1000 mg/kg
  AUC: 26400 ng·h/mL
  Cmax: 1380 ng/mL
